This assay has as its system P388. As to the kind of experiment: Cytotoxicity against mouse P388 cells. It counts as functional, cell-based.

In general, IC50 refers to the concentration that inhibits the measured activity by half. A higher IC50 goes with weaker potency in that assay.

Consider `Cn1c(-c2cn(C)c3ccccc23)cnc1-c1cn(C)c2cc(Br)ccc12` [N-METHYL NORTOPSENTIN B], for which the IC50 was 800 nM.

The compound `Brc1ccc2c(-c3c[nH]c(-c4c[nH]c5cc(Br)ccc45)n3)c[nH]c2c1` [NORTOPSENTIN A] yielded an IC50 of 4500 nM.

Source of the values: ChEMBL document CHEMBL1165947, “Synthesis and antitumor activity of 2,5-bis(3'-indolyl)-furans and 3,5-bis(3'-indolyl)-isoxazoles, nortopsentin analogues” (Bioorg Med Chem, 2010).
